Reference: ChEMBL document CHEMBL3627635, “Synthesis and anti-proliferative activity of novel azazerumbone conjugates with chalcones” (Bioorg Med Chem Lett, 2015)
In brackets after ≈: the same amount, converted by molar mass.

Columns and labels:
Format in all cases: functional, cell-based
P338 = assay: Antiproliferative activity against mouse […] cells
[1] = Antiproliferative activity against human Lu cells
HepG2 = assay: Antiproliferative activity against human HepG2 cells
MCF7 = assay: Antiproliferative activity against human MCF7 cells
SW480 = assay: Antiproliferative activity against human SW480 cells
HeLa = assay: Antiproliferative activity against human HeLa cells

Compound: COc1ccc(/C=C/C(=O)c2ccc(OCCn3cc(CN4C(=O)/C=C/C(C)(C)C/C=C(\C)CC/C=C/4C)nn3)cc2O)cc1
- IC50 (P338): 1.21 µg/mL (≈ 1.98 µM)
- IC50 [1]: 1.67 µg/mL (≈ 2.73 µM)
- IC50 (HepG2): 2.06 µg/mL (≈ 3.37 µM)
- IC50 (MCF7): 2.85 µg/mL (≈ 4.67 µM)
- IC50 (SW480): 3.24 µg/mL (≈ 5.3 µM)

Compound: COc1cccc(/C=C/C(=O)c2ccc(OCCn3cc(CN4C(=O)/C=C/C(C)(C)C/C=C(\C)CC/C=C/4C)nn3)cc2O)c1
- IC50 (P338): 0.89 µg/mL (≈ 1.46 µM)
- IC50 [1]: 0.61 µg/mL (≈ 0.999 µM)
- IC50 (HepG2): 1.01 µg/mL (≈ 1.65 µM)
- IC50 (MCF7): 1.12 µg/mL (≈ 1.83 µM)
- IC50 (SW480): 0.95 µg/mL (≈ 1.56 µM)

Compound: COc1ccccc1/C=C/C(=O)c1ccc(OCCn2cc(CN3C(=O)/C=C/C(C)(C)C/C=C(\C)CC/C=C/3C)nn2)cc1O
- IC50 (P338): 1.1 µg/mL (≈ 1.8 µM)
- IC50 [1]: 2.4 µg/mL (≈ 3.93 µM)
- IC50 (HepG2): 1.71 µg/mL (≈ 2.8 µM)
- IC50 (MCF7): 1.17 µg/mL (≈ 1.92 µM)
- IC50 (SW480): 0.9 µg/mL (≈ 1.47 µM)

Compound: COc1cc(/C=C/C(=O)c2ccc(OCCn3cc(CN4C(=O)/C=C/C(C)(C)C/C=C(\C)CC/C=C/4C)nn3)cc2O)cc(OC)c1OC
- IC50 (P338): 0.89 µg/mL (≈ 1.33 µM)
- IC50 [1]: 1.28 µg/mL (≈ 1.91 µM)
- IC50 (HepG2): 1.44 µg/mL (≈ 2.15 µM)
- IC50 (MCF7): 2.78 µg/mL (≈ 4.14 µM)
- IC50 (SW480): 2.61 µg/mL (≈ 3.89 µM)

Compound: C/C1=C\CC(C)(C)/C=C/C(=O)N(Cc2cn(CCOc3ccc(C(=O)/C=C/c4ccc(C)cc4)c(O)c3)nn2)/C(C)=C/CC1
- IC50 (P338): 0.92 µg/mL (≈ 1.55 µM)
- IC50 [1]: 0.91 µg/mL (≈ 1.53 µM)
- IC50 (HepG2): 0.87 µg/mL (≈ 1.46 µM)
- IC50 (MCF7): 1.21 µg/mL (≈ 2.03 µM)
- IC50 (SW480): 1.16 µg/mL (≈ 1.95 µM)

Compound: COc1ccc(/C=C/C(=O)c2ccc(OCCn3cc(CN4C(=O)/C=C/C(C)(C)C/C=C(\C)CC/C=C/4C)nn3)cc2O)cc1OCCCN1CCOCC1
- IC50 (P338): 0.96 µg/mL (≈ 1.27 µM)
- IC50 [1]: 1.56 µg/mL (≈ 2.07 µM)
- IC50 (HepG2): 1.59 µg/mL (≈ 2.11 µM)
- IC50 (MCF7): 1.13 µg/mL (≈ 1.5 µM)
- IC50 (SW480): 0.91 µg/mL (≈ 1.21 µM)

Compound: C/C1=C\CC(C)(C)/C=C/C(=O)N(Cc2cn(CCOc3ccc(C(=O)/C=C/c4ccc(C(C)C)cc4)c(O)c3)nn2)/C(C)=C/CC1
- IC50 (P338): 1.39 µg/mL (≈ 2.23 µM)
- IC50 [1]: 0.77 µg/mL (≈ 1.24 µM)
- IC50 (HepG2): 0.84 µg/mL (≈ 1.35 µM)
- IC50 (MCF7): 0.93 µg/mL (≈ 1.49 µM)
- IC50 (SW480): 0.85 µg/mL (≈ 1.36 µM)

Compound: COc1ccc(/C=C/C(=O)c2ccc(OCCCN3C(=O)/C=C/C(C)(C)C/C=C(\C)CC/C=C/3C)cc2)cc1
- IC50 (P338): 1.3 µg/mL (≈ 2.46 µM)
- IC50 [1]: 2.56 µg/mL (≈ 4.85 µM)
- IC50 (HepG2): 1.73 µg/mL (≈ 3.28 µM)
- IC50 (MCF7): 3.17 µg/mL (≈ 6.01 µM)
- IC50 (SW480): 2.92 µg/mL (≈ 5.53 µM)

Compound: COc1cccc(/C=C/C(=O)c2ccc(OCCCN3C(=O)/C=C/C(C)(C)C/C=C(\C)CC/C=C/3C)cc2)c1
- IC50 (P338): 1.1 µg/mL (≈ 2.08 µM)
- IC50 [1]: 1.06 µg/mL (≈ 2.01 µM)
- IC50 (HepG2): 1.38 µg/mL (≈ 2.62 µM)
- IC50 (MCF7): 1.37 µg/mL (≈ 2.6 µM)
- IC50 (SW480): 1.34 µg/mL (≈ 2.54 µM)

Compound: COc1ccccc1/C=C/C(=O)c1ccc(OCCCN2C(=O)/C=C/C(C)(C)C/C=C(\C)CC/C=C/2C)cc1
- IC50 (P338): 0.83 µg/mL (≈ 1.57 µM)
- IC50 [1]: 2.82 µg/mL (≈ 5.34 µM)
- IC50 (HepG2): 1.44 µg/mL (≈ 2.73 µM)
- IC50 (MCF7): 1.56 µg/mL (≈ 2.96 µM)
- IC50 (SW480): 1.33 µg/mL (≈ 2.52 µM)

Compound: COc1cc(/C=C/C(=O)c2ccc(OCCCN3C(=O)/C=C/C(C)(C)C/C=C(\C)CC/C=C/3C)cc2)cc(OC)c1OC
- IC50 (P338): 0.77 µg/mL (≈ 1.31 µM)
- IC50 [1]: 1.01 µg/mL (≈ 1.72 µM)
- IC50 (HepG2): 0.99 µg/mL (≈ 1.68 µM)
- IC50 (MCF7): 0.58 µg/mL (≈ 0.987 µM)
- IC50 (SW480): 0.71 µg/mL (≈ 1.21 µM)

Compound: C/C1=C\CC(C)(C)/C=C/C(=O)N(CCCOc2ccc(C(=O)/C=C/c3ccc(C)cc3)cc2)/C(C)=C/CC1
- IC50 (P338): 1.29 µg/mL (≈ 2.52 µM)
- IC50 [1]: 1.18 µg/mL (≈ 2.31 µM)
- IC50 (HepG2): 1.53 µg/mL (≈ 2.99 µM)
- IC50 (MCF7): 1.21 µg/mL (≈ 2.36 µM)
- IC50 (SW480): 1.57 µg/mL (≈ 3.07 µM)

Compound: COc1ccc(/C=C/C(=O)c2ccc(OCCCN3C(=O)/C=C/C(C)(C)C/C=C(\C)CC/C=C/3C)cc2)cc1OCCCN1CCOCC1
- IC50 (P338): 1.08 µg/mL (≈ 1.61 µM)
- IC50 [1]: 1.22 µg/mL (≈ 1.82 µM)
- IC50 (HepG2): 1.53 µg/mL (≈ 2.28 µM)
- IC50 (MCF7): 1.07 µg/mL (≈ 1.59 µM)
- IC50 (SW480): 0.8 µg/mL (≈ 1.19 µM)

Compound: C/C1=C\CC(C)(C)/C=C/C(=O)N/C(C)=C/CC1
- IC50 (P338): 6.25 µg/mL (≈ 26.8 µM)
- IC50 [1]: 17.8 µg/mL (≈ 76.4 µM)
- IC50 (HepG2): 34.6 µg/mL (≈ 148 µM)
- IC50 (MCF7): 15.6 µg/mL (≈ 67 µM)
- IC50 (SW480): 6.83 µg/mL (≈ 29.3 µM)

Compound: Cc1c2ccncc2c(C)c2c1[nH]c1ccccc12 [ELLIPTECINE]
- IC50 (P338): 0.44 µg/mL (≈ 1.79 µM)
- IC50 [1]: 0.63 µg/mL (≈ 2.56 µM)
- IC50 (HepG2): 0.36 µg/mL (≈ 1.46 µM)
- IC50 (MCF7): 0.44 µg/mL (≈ 1.79 µM)
- IC50 (SW480): 0.38 µg/mL (≈ 1.54 µM)

Compound: C/C1=C\CC(C)(C)/C=C/C(=O)/C(C)=C/CC1 [ZERUMBONE]
- IC50 (P338): 2.63 µg/mL (≈ 12 µM)
- IC50 [1]: 6.05 µg/mL (≈ 27.7 µM)
- IC50 (HeLa): 2.5 µg/mL (≈ 11.5 µM)
- IC50 (HepG2): 13.3 µg/mL (≈ 61.1 µM)
- IC50 (MCF7): 9.67 µg/mL (≈ 44.3 µM)
- IC50 (SW480): 3.15 µg/mL (≈ 14.4 µM)
